Source: article PMC11249646, “Small-Molecule Disruptors of the Interaction between Calcium- and Integrin-Binding Protein 1 and Integrin αIIbβ3 as Novel Antiplatelet Agents” (ACS Pharmacology & Translational Science, 2024)
Read-outs that look alike come from different tables or passages of the source.

Biological target: T1, CIB1 and αIIb interaction (CIB1-GST : F-αIIb peptide) (Homo sapiens, UniProt Q99828)
T1 construct: made in house; host or cells: BL-21 plus RIL cells (E. coli)
T1 sequence (Q99828 1-191): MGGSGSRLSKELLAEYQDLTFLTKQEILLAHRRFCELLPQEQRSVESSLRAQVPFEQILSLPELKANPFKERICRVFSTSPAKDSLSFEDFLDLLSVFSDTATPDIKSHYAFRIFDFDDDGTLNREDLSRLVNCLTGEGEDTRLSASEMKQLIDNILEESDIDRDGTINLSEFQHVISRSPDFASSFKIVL
Test: FP assay, 1536-well qHTS format (primary and confirmatory screen)
Assay type: binding
Conditions: for Efficacy (%): negative = inhibition; for Curve Class: negative sign = inhibitory curve; for IC50: read-out: IC50

[1] = qHTS primary screen hits, Table S2
[2] = qHTS primary screen hits, Table S2, several classes where COUNT > 1
[3] = qHTS primary screen of LOPAC/NPACT libraries

Row | SMILES | Efficacy (%) [1] [%] | Curve Class [2] | IC50 [1] [µM] | further results
1 | Cc1nc(CNc2ncnc3ccc(-c4ccc(CO)o4)cc23)cs1.O=C(O)C(F)(F)F [NCGC00188652-01] | -35 | -2.4 | 56.2 | –
2 | Cc1ccc(CNc2ncnc3ccc(-c4ccc(CO)o4)cc23)o1.O=C(O)C(F)(F)F [NCGC00188654-01] | -45 | – | 50.1 | Curve Class [1]: -2.2
3 | O=C(O)C(F)(F)F.OCc1ccc(-c2ccc3ncnc(NCCc4c[nH]cn4)c3c2)o1 [NCGC00188669-01] | -40 | -2.4 | 44.7 | –
4 | O=C(O)C(F)(F)F.OCc1ccc(-c2ccc3ncnc(NCc4ncc[nH]4)c3c2)o1 [NCGC00188670-01] | -33 | -2.4 | 56.2 | –
5 | CCc1nnc(Nc2ncnc3scc(-c4cccc(S(C)(=O)=O)c4)c23)s1.O=C(O)C(F)(F)F [NCGC00188733-01] | -31 | -2.2 | 50.1 | –
6 | Cl.O=c1cc(CN2CCOCC2)occ1OCCCCCSc1ccnc2cc(C(F)(F)F)ccc12 [NCGC00188866-05] | – | – | – | Efficacy (%) [3]: -26%; Curve Class [3]: -2.4; IC50 [3]: 39.8 µM
7 | CCC(=O)NC(c1cccs1)c1cc(Cl)c2cccnc2c1O (centres unmarked) [NCGC00188867-01] | -29 | -2.4 | 44.7 | –
8 | Cc1ccc(CNc2ncnc3ccc(-c4ccc([C@@H](C)O)o4)cc23)o1 [NCGC00189252-01] | – | – | – | Efficacy (%) (qHTS FP screen hits, Table S2): -27%; IC50 (qHTS FP screen hits, Table S2): 12.6 µM
9 | O=C(O)C(F)(F)F.O=C(O)c1ccc(-c2ccc3ncnc(NCc4cccs4)c3c2)o1 [NCGC00189277-01] | -25 | -2.4 | 89.1 | –
10 | Cc1ccc(N[S+](=O)([O-])c2cc3c(cc2N[C@@H](C)CO)NC(=O)CC3)cc1N[C@@H](C)CO [NCGC00189369-01] | -29 | -2.4 | 70.8 | –
11 | O=C(Nc1ccccc1)c1ccccc1NC(=O)C1CCCCC1 [NCGC00189487-01] | -27 | -2.4 | 56.2 | –
12 | COc1ccc(NC(=O)c2cccs2)cn1.O=C(O)C(F)(F)F [NCGC00229661-01] | -41 | -2.2 | 50.1 | –
13 | O=C1CCCC2=C1C(c1n[nH]cc1Br)N=C(Nc1nc3ccccc3o1)N2 (centres unmarked) [NCGC00229723-01] | -18 | – | 50.1 | Curve Class [1]: -2.4
14 | Cc1cc(C2N=C(Nc3nc4ccccc4o3)NC3=C2C(=O)CCC3)n[nH]1.O=C(O)C(F)(F)F (centres unmarked) [NCGC00229726-01] | -26 | -2.4 | 56.2 | –
15 | CC1=C(C(=O)N(C)C)C(c2ccccc2Br)N=C(Nc2nc3ccccc3o2)N1.O=C(O)C(F)(F)F (centres unmarked) [NCGC00229733-01] | -27 | – | 56.2 | Curve Class [1]: -2.4
16 | CN1CCN(c2ccc(NC(=O)CN(C)Cc3c(O)ccc4ccccc34)cc2)CC1.O=C(O)C(F)(F)F [NCGC00229739-01] | -49 | -3 | 89.1 | –
17 | CC(C)(C)CNc1ncnc2ccc(-c3ccc(CO)o3)cc12.O=C(O)C(F)(F)F [NCGC00238375-01] | -42 | -2.2 | 50.1 | –
18 | O=C(O)C(F)(F)F.OCc1ccc(-c2ccc3ncnc(N4CCOCC4)c3c2)o1 [NCGC00238384-01] | -42 | -2.2 | 44.7 | –
19 | COc1cc(N2CCC(N3CCN(C)CC3)CC2)ccc1Nc1ncc(Cl)c(Nc2ccccc2S(=O)(=O)C(C)C)n1 [NCGC00238453-07] | – | – | – | Efficacy (%) [3]: -24%; Curve Class [3]: -2.4; IC50 [3]: 56.2 µM

Row | SMILES | Efficacy (%) [1] [%] | Curve Class [2] | IC50 [1] [µM] | further results
20 | O=C(Nc1ccc(Cl)c(Cl)c1)Nc1nnc(N2CCNCC2)s1.O=C(O)C(F)(F)F [NCGC00238616-01] | -35 | -2.4 | 79.4 | –
21 | Cc1ccc(C)c(SC2=NS(=O)(=O)c3cc(C(=O)Nc4ccc5ncccc5c4)ccc32)c1 [NCGC00238689-01] | -27 | – | 44.7 | Curve Class [1]: -2.4
22 | Cc1ccc(OCCn2c3c(c4ccccc42)CN(C(=O)C2CCCCC2)CC3)cc1.O=C(O)C(F)(F)F [NCGC00238717-01] | -46 | -2.4 | 56.2 | –
23 | O=C(O)C(F)(F)F.O=C(O)c1ccc(O)c2ncc(N3CCN(Cc4ccccc4)CC3)cc12 [NCGC00241045-04] | -24 | -2.4 | 56.2 | –
24 | CC(=O)Nc1sc2c(c1-c1nc3ccccc3s1)CCN(C1COC1)C2.O=C(O)C(F)(F)F [NCGC00241066-01] | -83 | -1.2 | 14.1 | –
25 | Cc1ccnc(NC(=S)N2CCc3ccccc3C2)c1.O=C(O)C(F)(F)F [NCGC00241083-01] | -23 | -2.4 | 79.4 | –
26 | Cc1ccnc(N(C)C(=S)N2CCN(c3cccc(C(F)(F)F)c3)CC2)c1.O=C(O)C(F)(F)F [NCGC00241084-01] | -24 | – | 50.1 | Curve Class [1]: -2.4
27 | Cc1ccc(-n2nc(C(C)(C)C)cc2NC(=O)Nc2ccc(OCCN3CCOCC3)c3ccccc23)cc1 [NCGC00241104-02] | -32 | -2.4 | 44.7 | –
28 | Cc1ccnc(NC(=S)N2CC[C@@H](Nc3cccc(C(F)(F)F)c3)C2)c1 [NCGC00241356-01] | -31 | -2.4 | 79.4 | –
29 | Cc1ccn2c(Nc3ccc4c(c3)OCO4)c(-c3ccccn3)nc2c1.O=C(O)C(F)(F)F [NCGC00241360-01] | -51 | -2.4 | 56.2 | –
30 | Cc1cc2c(cc1C1(c3ccc(C(=O)O)cc3)CC1)C(C)(C)CCC2(C)C [NCGC00241454-01] | -27 | -2.4 | 79.4 | –
31 | COc1ccc(CNC(=O)c2ccc3c(c2)NC(=O)c2ccccc2S3)cc1 [NCGC00241665-01] | -27 | – | 56.2 | Curve Class [1]: -2.4
32 | CC(=O)O.Cc1ccc(OCCn2c(CCNC(=O)c3ccc(N)cc3)nc3ccccc32)cc1 [NCGC00241723-01] | -31 | – | 44.7 | Curve Class [1]: -1.4
33 | Cc1ccnc(NC(=S)N2CCN(c3cccc(C(F)(F)F)c3)CC2)n1.O=C(O)C(F)(F)F [NCGC00242308-01] | -41 | -2.2 | 79.4 | –
34 | Cc1ccc(NS(=O)(=O)c2cc(Br)cc3c2NC(=O)CC3)cc1Cl.O=C(O)C(F)(F)F [NCGC00242331-01] | -33 | – | 50.1 | Curve Class [1]: -2.2
35 | N#C[C@@H]1C[C@@H]2C[C@@H]2N1C(=O)[C@@H](N)C12CC3CC(CC(O)(C3)C1)C2 [NCGC00242597-01] | -49 | -2.2 | 44.7 | –
36 | O=C(O)C(F)(F)F.O=C1CCCC2=C1C(c1n[nH]cc1Cl)NC(Nc1nc3ccccc3o1)=N2 (centres unmarked) [NCGC00242659-02] | -31 | -2.4 | 31.6 | –
37 | Cc1cc(C)nc(NC(=S)N2CCN(c3cc4ccccc4cn3)CC2)c1.O=C(O)C(F)(F)F [NCGC00244142-01] | -31 | -2.4 | 79.4 | –
